From patent US20230027026A1, “FUSED PYRIMIDINE COMPOUNDS, COMPOSITIONS AND MEDICINAL APPLICATIONS THEREOF” (JUBILANT BIOSYS LIMITED, priority 2019, published 2023)

Columns and labels:
[1] = molecular target: T1, EGFR (T790M/L858R) (Homo sapiens, UniProt P00533, L858R/T790M); assay: EGFR L858R/T790M enzyme inhibition assay (HTRF); assay type: biochemical; details: 5 μM ATP, 60 min, read-out: EGFR_L858R T790M_IC50_nM
T1 construct: GST; purchased Proqinase
Experimental: Example 2: EGFR L858R & Del19/T790M Assay Protocol (to Find the IC50 for the Compounds Using HTRF Method)
Reagents for Enzyme Assay:
• 1. Enzyme Assay Buffer: 60 mM HEPES (pH 7.4), 50 mM NaCl, 20 mM MgCl2, 5 mM MnCl2, filtered using 0.2 μm pore size, stored at 4° C. • Supplements (added fresh to the enzyme buffer): 1M DTT stock was made, 5% BSA stock and 0.1M Na3OV4 stored at 4° C. Enzyme assay buffer 50 mL, 1 M DTT 100 μL, 5% BSA 500 μL, 0.1 M Na3OV4 50 μL. • 2. GST-hEGFR (L858R), active: EGFR (T790M/L858R), active (Proqinase), 3.6 μM stock; 2.5 nM in final assay. • 3. Gastrin Precusor-Biotinylated: Gastrin precursor (Tyr87) biotinylated peptide, EEAY*GWM, Cell Signaling Tech 1310, Lot-7, Want final 0.5 μM in assay. • 4. ATP: 10 mM stock in 100 μL Enzyme assay buffer pH 7.4 prepared freshly, want 5 μM in final assay. • 5. Test compounds: Powders were dissolved in 100% DMSO and made up to a final stock concentration of 10 mM (volume in μL to add for 10 mM=mg powder X 10^5/MW). Final compound concentration in the assay plate started at 10 μM.
• 1. HTRF buffer: 50 mM Tris —HCl, pH-7.5, 100 mM NaCl, 0.1% BSA, 0.05% Tween20, 0.5 mM EDTA, filtered using 0.2 μm pore size, stored at 4° C. • Phycolink® Streptavidin-Allophycocyanin (SA-APC) Prozyme, Cat. #PJ25S, Lot #896 085, 2.06 mg/mL, APC concentration is 11.6 μM, streptavidin concentration is 15.5 μM. Want 12 nM final in assay (based on streptavidin concentration). • 2. (Europium) Eu-W1024 Anti-phosphotyrosine (PT-66) Antibody: Perkin Elmer (Product Number: AD0068), monoclonal IgG1 that recognizes phosphotyrosine peptide 100 μg/ml stock. Want 0.1 nM final in assay.
• 1. The compound dilution was made by TECAN as per the above scheme. • 2. 16 μL of diluted compound was added to the assay plate by using TECAN. • 3. 10 μL of enzyme mix was added to each well except mins. • 4. 20 μL of substrate and ATP mix were added into each well of the assay plate, manually. • 5. The plate was incubated on a laboratory shaker at room temperature for 60 min. • 6. Meanwhile, the HTRF mix was prepared and 75 μL was added to the HTRF plate. • 7. When the incubation was over, 10 μL of the reaction mixture was transferred to the HTRF assay plate and incubated on a laboratory shaker for 30 min at room temperature. • 8. The reading was taken in Pherastar (ext 337 nm, Em 665 & 620 nm). • 9. The results were analyzed using Graphpad prism after calculation of the z factor, signal window and % inhibition to get the IC50.

[2] = test system: H1975 cells (L858R_T790M mutant); assay: H1975 proliferation assay; assay type: cell-based; details: Homo sapiens, NCI-H1975; read-out: Proliferation_Assay H1975 cells-EC50_nM L858R_T790M_mutant
[3] = molecular target: EGFR(D770_N771insSVD) expressing Ba/F3 stable cell line (Homo sapiens, UniProt P00533, DUP768-770, cells depend on it); assay: Cellular proliferation (Alamar Blue) assay, EGFR D770_N771insSVD Ba/F3; assay type: cell-based; details: EGFR D770_N771insSVD Ba/F3, 72 hr, read-out: D770 IC50
Outline: (§1)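 Alamar Blue proliferation read-out (3 h incubation, ex 540/em 590 nm) after 72 h compound exposure at 37 °C, 5% CO2, using final concentrations of 10-0.0005 μM in 3-fold steps. Cells: engineered Ba/F3 lines at 15,000 per well in RPMI/10% FBS, and BT-474.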

[4] = test system: A431 cells; assay: Cellular proliferation (Alamar Blue) assay, A431; assay type: cell-based; details: Homo sapiens, A-431; A431 cells, 72 hr, Alamar Blue; read-out: A431 IC50
Outline: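 Seventy-two-hour growth assay with 3-fold compound titration (final 10–0.0005 μM) and Alamar Blue fluorescence end point, ex 540/em 590 nm.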

[5] = molecular target: EGFR (A767_dupASV) expressing Ba/F3 stable cell line (Homo sapiens, UniProt P00533, DUP767-769, cells depend on it); assay: Cellular proliferation (Alamar Blue) assay, EGFR A767_dupASV Ba/F3; assay type: cell-based; details: EGFR A767_dupASV Ba/F3, 72 hr, read-out: A767 IC50
Outline: as §1

[6] = molecular target: HER2 (A775_G776insYVMA) expressing Ba/F3 stable cell line (Homo sapiens, UniProt P04626, DUP772-775, cells depend on it); assay: Cellular proliferation (Alamar Blue) assay, HER2 YVMA Ba/F3; assay type: cell-based; details: HER2 A775_G776insYVMA Ba/F3, 72 hr, read-out: YVMA IC50
Outline: as §1

Chain of EGFR (A767_dupASV) expressing Ba/F3 stable cell line (P00533 with tags, fused parts or gaps DUP767-769): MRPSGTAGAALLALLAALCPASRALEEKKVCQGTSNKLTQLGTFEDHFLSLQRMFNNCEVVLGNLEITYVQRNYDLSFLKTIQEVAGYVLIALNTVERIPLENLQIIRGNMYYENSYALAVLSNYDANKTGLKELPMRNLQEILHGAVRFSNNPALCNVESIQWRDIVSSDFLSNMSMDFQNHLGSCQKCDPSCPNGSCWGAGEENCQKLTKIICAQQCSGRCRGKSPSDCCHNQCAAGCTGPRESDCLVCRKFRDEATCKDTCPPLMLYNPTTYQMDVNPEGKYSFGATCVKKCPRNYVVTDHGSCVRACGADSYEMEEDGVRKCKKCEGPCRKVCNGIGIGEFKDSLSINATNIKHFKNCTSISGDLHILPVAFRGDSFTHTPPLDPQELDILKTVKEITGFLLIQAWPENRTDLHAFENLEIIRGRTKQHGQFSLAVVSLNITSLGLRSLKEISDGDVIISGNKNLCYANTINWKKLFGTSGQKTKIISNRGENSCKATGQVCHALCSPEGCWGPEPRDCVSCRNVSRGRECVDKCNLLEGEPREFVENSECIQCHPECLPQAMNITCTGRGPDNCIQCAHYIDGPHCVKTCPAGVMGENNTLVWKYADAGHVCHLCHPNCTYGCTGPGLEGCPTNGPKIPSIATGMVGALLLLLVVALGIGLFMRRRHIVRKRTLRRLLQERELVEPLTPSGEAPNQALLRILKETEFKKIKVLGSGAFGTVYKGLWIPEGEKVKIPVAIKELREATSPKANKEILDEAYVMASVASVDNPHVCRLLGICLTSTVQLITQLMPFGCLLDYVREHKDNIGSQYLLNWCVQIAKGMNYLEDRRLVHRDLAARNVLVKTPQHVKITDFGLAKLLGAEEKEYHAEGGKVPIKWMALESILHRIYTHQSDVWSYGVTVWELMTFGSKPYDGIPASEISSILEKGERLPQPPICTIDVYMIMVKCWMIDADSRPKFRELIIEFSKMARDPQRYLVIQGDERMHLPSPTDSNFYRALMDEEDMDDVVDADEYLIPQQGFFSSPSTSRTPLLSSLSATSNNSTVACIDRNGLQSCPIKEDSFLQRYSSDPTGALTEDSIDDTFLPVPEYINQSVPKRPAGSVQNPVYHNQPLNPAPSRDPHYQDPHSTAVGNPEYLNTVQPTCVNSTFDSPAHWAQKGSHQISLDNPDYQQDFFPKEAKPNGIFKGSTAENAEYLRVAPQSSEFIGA
Chain of EGFR(D770_N771insSVD) expressing Ba/F3 stable cell line (P00533 with tags, fused parts or gaps DUP768-770): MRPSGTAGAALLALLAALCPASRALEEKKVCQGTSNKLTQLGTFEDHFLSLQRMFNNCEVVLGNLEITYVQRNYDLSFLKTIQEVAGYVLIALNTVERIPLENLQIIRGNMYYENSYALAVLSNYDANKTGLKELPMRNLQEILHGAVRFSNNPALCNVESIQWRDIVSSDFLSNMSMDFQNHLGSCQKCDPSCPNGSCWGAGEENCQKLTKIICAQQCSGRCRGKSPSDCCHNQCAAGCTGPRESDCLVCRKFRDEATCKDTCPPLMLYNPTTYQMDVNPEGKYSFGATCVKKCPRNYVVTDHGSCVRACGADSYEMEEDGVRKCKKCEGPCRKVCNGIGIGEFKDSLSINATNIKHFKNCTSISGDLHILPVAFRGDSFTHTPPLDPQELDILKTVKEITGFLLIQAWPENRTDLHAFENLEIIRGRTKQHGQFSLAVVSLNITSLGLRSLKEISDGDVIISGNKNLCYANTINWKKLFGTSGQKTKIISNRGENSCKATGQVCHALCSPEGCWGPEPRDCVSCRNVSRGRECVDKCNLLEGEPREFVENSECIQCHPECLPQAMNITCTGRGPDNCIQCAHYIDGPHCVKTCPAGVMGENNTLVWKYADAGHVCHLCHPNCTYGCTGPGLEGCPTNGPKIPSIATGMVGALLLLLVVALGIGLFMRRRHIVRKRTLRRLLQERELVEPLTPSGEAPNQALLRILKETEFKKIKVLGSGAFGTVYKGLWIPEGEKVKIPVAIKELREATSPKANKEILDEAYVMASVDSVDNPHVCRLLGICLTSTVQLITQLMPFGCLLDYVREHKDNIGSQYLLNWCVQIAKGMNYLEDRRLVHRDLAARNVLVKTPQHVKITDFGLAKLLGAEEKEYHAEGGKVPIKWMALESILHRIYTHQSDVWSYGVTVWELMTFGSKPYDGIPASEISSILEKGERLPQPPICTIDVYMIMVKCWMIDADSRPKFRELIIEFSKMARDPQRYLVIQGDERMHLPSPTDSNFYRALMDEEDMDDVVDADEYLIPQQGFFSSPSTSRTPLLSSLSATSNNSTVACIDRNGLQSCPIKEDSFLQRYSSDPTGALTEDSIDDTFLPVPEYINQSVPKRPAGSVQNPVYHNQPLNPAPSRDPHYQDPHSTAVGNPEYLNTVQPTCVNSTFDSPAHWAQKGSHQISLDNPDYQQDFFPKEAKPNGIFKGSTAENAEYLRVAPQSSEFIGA
T1 sequence (P00533 25-1210 T790M/L858R): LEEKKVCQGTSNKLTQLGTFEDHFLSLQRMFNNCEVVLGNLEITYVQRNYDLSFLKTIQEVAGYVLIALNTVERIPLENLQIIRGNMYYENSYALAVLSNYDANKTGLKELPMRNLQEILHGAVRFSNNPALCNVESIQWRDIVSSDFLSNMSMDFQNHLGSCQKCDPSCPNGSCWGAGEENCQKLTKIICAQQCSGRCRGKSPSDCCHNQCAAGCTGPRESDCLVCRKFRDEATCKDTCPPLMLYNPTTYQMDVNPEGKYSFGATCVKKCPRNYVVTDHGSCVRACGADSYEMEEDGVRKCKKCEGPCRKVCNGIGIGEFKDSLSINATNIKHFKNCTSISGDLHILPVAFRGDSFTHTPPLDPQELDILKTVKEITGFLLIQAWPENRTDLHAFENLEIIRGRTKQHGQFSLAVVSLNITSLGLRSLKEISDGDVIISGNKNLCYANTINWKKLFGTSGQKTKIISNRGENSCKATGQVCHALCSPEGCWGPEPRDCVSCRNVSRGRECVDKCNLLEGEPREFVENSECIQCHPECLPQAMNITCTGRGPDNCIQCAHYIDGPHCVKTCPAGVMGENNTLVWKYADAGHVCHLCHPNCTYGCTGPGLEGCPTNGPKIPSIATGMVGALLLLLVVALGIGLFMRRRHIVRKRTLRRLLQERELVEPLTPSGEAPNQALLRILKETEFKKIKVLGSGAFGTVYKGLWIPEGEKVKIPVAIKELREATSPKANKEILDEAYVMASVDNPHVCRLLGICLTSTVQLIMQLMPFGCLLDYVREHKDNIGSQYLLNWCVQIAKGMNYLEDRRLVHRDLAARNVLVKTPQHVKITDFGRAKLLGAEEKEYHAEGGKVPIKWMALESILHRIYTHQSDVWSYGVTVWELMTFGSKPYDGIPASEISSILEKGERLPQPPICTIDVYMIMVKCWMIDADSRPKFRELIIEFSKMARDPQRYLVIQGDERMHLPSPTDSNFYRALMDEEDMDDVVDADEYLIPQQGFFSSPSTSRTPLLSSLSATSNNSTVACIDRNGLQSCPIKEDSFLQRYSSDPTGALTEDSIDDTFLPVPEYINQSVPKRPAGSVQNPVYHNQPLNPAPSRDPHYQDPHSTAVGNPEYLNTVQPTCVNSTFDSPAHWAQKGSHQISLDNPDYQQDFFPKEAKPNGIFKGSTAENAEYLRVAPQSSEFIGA
Chain of HER2 (A775_G776insYVMA) expressing Ba/F3 stable cell line (P04626 with tags, fused parts or gaps DUP772-775): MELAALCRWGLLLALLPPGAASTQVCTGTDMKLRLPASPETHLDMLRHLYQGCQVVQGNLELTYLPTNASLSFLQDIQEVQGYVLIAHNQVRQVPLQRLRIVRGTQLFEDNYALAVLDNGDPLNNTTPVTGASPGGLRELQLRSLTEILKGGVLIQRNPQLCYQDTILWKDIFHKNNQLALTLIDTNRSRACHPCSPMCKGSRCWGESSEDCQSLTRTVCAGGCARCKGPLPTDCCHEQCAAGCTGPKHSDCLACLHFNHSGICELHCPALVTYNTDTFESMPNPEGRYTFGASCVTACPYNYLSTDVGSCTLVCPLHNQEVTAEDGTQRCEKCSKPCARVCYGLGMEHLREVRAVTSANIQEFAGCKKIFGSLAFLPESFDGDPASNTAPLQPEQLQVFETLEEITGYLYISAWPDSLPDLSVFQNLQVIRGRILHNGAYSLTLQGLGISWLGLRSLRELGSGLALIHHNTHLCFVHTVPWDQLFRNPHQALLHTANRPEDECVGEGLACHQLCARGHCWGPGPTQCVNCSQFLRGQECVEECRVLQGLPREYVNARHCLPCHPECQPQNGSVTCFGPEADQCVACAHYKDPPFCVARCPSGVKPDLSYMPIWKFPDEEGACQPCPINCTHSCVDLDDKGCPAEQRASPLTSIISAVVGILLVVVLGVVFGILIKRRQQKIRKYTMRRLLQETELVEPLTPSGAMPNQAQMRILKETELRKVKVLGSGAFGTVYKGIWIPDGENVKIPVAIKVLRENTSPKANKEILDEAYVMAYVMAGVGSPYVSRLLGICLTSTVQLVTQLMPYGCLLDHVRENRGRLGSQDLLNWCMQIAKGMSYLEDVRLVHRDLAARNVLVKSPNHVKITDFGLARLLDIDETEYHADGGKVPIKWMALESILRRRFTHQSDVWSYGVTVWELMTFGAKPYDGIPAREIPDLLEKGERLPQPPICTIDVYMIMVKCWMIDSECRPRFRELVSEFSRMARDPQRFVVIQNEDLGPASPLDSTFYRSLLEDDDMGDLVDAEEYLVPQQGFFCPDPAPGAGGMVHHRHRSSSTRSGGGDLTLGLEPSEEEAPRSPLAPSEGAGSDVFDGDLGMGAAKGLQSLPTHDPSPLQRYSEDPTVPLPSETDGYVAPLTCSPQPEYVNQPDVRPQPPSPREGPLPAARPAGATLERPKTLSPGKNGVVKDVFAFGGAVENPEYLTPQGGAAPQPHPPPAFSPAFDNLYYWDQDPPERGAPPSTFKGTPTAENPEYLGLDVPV

| SMILES | IC50 [1] [nM] | EC50 [2] [nM] | GI50 [3] [nM] | IC50 [4] [nM] | GI50 [5] [nM] | GI50 [6] [nM] |
| --- | --- | --- | --- | --- | --- | --- |
| CN(C)C/C=C/C(=O)Nc1cccc(N2C(=O)N(Cc3ccccc3)Cc3cnc(Nc4cnn(CC(F)(F)F)c4)nc32)c1 [Compound 12, (E)-N-(3-(3-benzyl-2-oxo-7-((1-(2,2,2-trifluoroethyl)-1H-pyrazol-4-yl)amino)-3,4-dihydropyrimido[4,5-d]pyrimidin-1(2H)-yl)phenyl)-4-(dimethylamino)but-2-enamide] | 3 | 6.6 | 134 | 1240 | 106 |  |
| C=CC(=O)Nc1cccc(N2C(=O)N(Cc3ccccc3)Cc3cnc(Nc4nc(C)cs4)nc32)c1 [Compound 25, N-(3-(3-benzyl-7-((4-methylthiazol-2-yl)amino)-2-oxo-3,4-dihydropyrimido[4,5-d]pyrimidin-1(2H)-yl)phenyl)acrylamide] | 3 | 29 | 69 | 83 | 320 |  |
| CN(C)C/C=C/C(=O)Nc1cccc(N2C(=O)N(Cc3ccc(F)cc3)Cc3cnc(Nc4cnn(C)c4)nc32)c1 [Compound 2, (E)-4-(dimethylamino)-N-(3-(3-(4-fluorobenzyl)-7-((1-methyl-1H-pyrazol-4-yl)amino)-2-oxo-3,4-dihydropyrimido[4,5-d]pyrimidin-1(2H)-yl)phenyl)but-2-enamide] | 2 | 19.7 | 893 | 615 | 414 |  |
| CN(C)C/C=C/C(=O)Nc1cccc(N2C(=O)N(Cc3ccccc3)Cc3cnc(Nc4ccc5c(cnn5C)c4)nc32)c1 [Compound 43, (E)-N-(3-(3-benzyl-7-((1-methyl-1H-indazol-5-yl)amino)-2-oxo-3,4-dihydropyrimido[4,5-d]pyrimidin-1(2H)-yl)phenyl)-4-(dimethylamino)but-2-enamide] | 3.8 | 6.3 | 108 | 632 | 103 |  |
| Cc1cnc(Nc2ncc3c(n2)N(c2cccc(NC(=O)/C=C/CN(C)C)c2)C(=O)N(Cc2ccccc2)C3)s1 [Compound 19, (E)-N-(3-(3-benzyl-7-((5-methylthiazol-2-yl)amino)-2-oxo-3,4-dihydropyrimido[4,5-d]pyrimidin-1(2H)-yl)phenyl)-4-(dimethylamino)but-2-enamide] | 6 | 16 |  |  |  |  |
| CN(C)C/C=C/C(=O)Nc1cccc(N2C(=O)N(Cc3ccccc3)Cc3cnc(Nc4cnn(C5CC5)c4)nc32)c1 [Compound 7, (E)-N-(3-(3-benzyl-7-((1-cyclopropyl-1H-pyrazol-4-yl)amino)-2-oxo-3,4-dihydropyrimido[4,5-d]pyrimidin-1(2H)-yl)phenyl)-4-(dimethylamino)but-2-enamide] | 6 | 9.3 |  |  |  |  |
| C=CC(=O)N1CC[C@H](N2C(=O)N(Cc3ccccc3)Cc3cnc(Nc4cn(C)nc4Cl)nc32)C1 (single isomer, unassigned) [Compound 39] | 112 | 637 | 9350 | ≥ 10000 | ≥ 10000 |  |
| Cc1csc(Nc2ncc3c(n2)N(c2cccc(NC(=O)/C=C/CN(C)C)c2)C(=O)N(Cc2ccccc2)C3)n1 [Compound 48, (E)-N-(3-(3-benzyl-7-((4-methylthiazol-2-yl)amino)-2-oxo-3,4-dihydropyrimido[4,5-d]pyrimidin-1(2H)-yl)phenyl)-4-(dimethylamino)but-2-enamide] | 3.5 | 133 | 361 | 148 | 456 |  |
| C=CC(=O)Nc1cccc(N2C(=O)N(c3ccc(F)cc3)Cc3cnc(Nc4cnn(C)c4)nc32)c1 [Compound 17, N-(3-(3-(4-fluorophenyl)-7-((1-methyl-1H-pyrazol-4-yl)amino)-2-oxo-3,4-dihydropyrimido[4,5-d]pyrimidin-1(2H)-yl)phenyl)acrylamide] | 0.5 | 0.7 |  |  |  |  |
| CN(C)C/C=C/C(=O)Nc1cccc(N2C(=S)N(c3ccccc3)Cc3cnc(Nc4cn(C)nc4Cl)nc32)c1 [Compound 51, (E)-N-(3-(7-((3-chloro-1-methyl-1H-pyrazol-4-yl)amino)-3-phenyl-2-thioxo-3,4-dihydropyrimido[4,5-d]pyrimidin-1(2H)-yl)phenyl)-4-(dimethylamino)but-2-enamide] | 8 | 9.8 |  |  |  |  |
| C=CC(=O)Nc1cccc(N2C(=O)N(Cc3ccccc3)Cc3cnc(Nc4cnn(C5CC5)c4)nc32)c1 [Compound 5, N-(3-(3-benzyl-7-((1-cyclopropyl-1H-pyrazol-4-yl)amino)-2-oxo-3,4-dihydropyrimido[4,5-d]pyrimidin-1(2H)-yl)phenyl)acrylamide] | 1 | 5.7 |  |  |  |  |
| C=CC(=O)Nc1cccc(N2C(=O)N(c3ccccc3)Cc3cnc(Nc4cccc5c4CCN5C4CCN(C)CC4)nc32)c1 [Compound 118, N-(3-(7-((1-(1-methylpiperidin-4-yl)indolin-4-yl)amino)-2-oxo-3-phenyl-3,4-dihydropyrimido[4,5-d]pyrimidin-1(2H)-yl)phenyl)acrylamide] |  |  | 110 | ≥ 10000 | 32 | 103 |
| CN(C)C1CCN(C/C=C/C(=O)Nc2cccc(N3C(=O)N(c4ccccc4)Cc4cnc(Nc5cn(C)nc5Cl)nc43)c2)CC1 [Compound 124, (E)-N-(3-(7-((3-chloro-1-methyl-1H-pyrazol-4-yl)amino)-2-oxo-3-phenyl-3,4-dihydropyrimido[4,5-d]pyrimidin-1(2H)-yl)phenyl)-4-(4-(dimethylamino)piperidin-1-yl)but-2-enamide] |  |  | 4980 | ≥ 10000 | 2760 | 1480 |
| C=CC(=O)Nc1cccc(N2C(=O)N(Cc3ccccc3)Cc3cnc(Nc4ccc(N5CCN(C)CC5)nc4)nc32)c1 [Compound 67, N-(3-(3-benzyl-7-((6-(4-methylpiperazin-1-yl)pyridin-3-yl)amino)-2-oxo-3,4-dihydropyrimido[4,5-d]pyrimidin-1(2H)-yl)phenyl)acrylamide] |  |  | 84 | ≥ 10000 | 41 | 90 |
| Cc1ccc(CN2Cc3cnc(Nc4cn(C)nc4Cl)nc3N(c3cccc(NC(=O)/C=C/CN(C)C)c3)C2=O)c(C)c1 [Compound 68, (E)-N-(3-(7-((3-chloro-1-methyl-1H-pyrazol-4-yl)amino)-3-(2,4-dimethylbenzyl)-2-oxo-3,4-dihydropyrimido[4,5-d]pyrimidin-1(2H)-yl)phenyl)-4-(dimethylamino)but-2-enamide] |  |  | 798 | 6020 | 356 | 632 |
